Literature values, collected in patent publication US9789059B2, “Oral disintegrating tablet” (Boehringer Ingelheim International GmbH, priority 2014, dated 2017).

Conditions: physiological pH range of the gastro-intestinal tract between pH 1 to 7; free acid form

CCCc1nc2c(C)cc(-c3nc4ccccc4n3C)cc2n1Cc1ccc(-c2ccccc2C(=O)O)cc1 [Telmisartan, 4′-[2-n-propyl-4-methyl-6-(1-methylbenzimidazol-2-yl)-benzimidazol-1-ylmethyl]-biphenyl-2-carboxylic acid]
solubility in aqueous systems: very poor solubility
